# Experimental data reported in patent publication US20220040129A1, “TREATMENT OF HYPERAMMONEMIA IN PATIENTS WITH RENAL INSUFFICIENCY” (RECORDATI S.p.A., priority 2019, published 2022).
# Where two headings read alike, the source gives them in different places.
# Key:
# plasma NH3 = experiment: Retrospective review of PA, MMA, IVA decompensation episodes: plasma NH3 and clinical findings; format: in vivo, human
# Description: […] […] Plasma ammonia (NH3) levels were measured up to a maximum of 15 days from the start of treatment. […] Concomitant standard of care therapies included carnitine, arginine, hydroxocobalamin, biotin, thiamine, riboflavin and glucose.
# CYP2C19 = CYP2C19 (Homo sapiens, UniProt P33261); experiment: In vitro CYP inhibition; format: in vitro ADME
# CYP2C19, sequence (P33261 whole entry): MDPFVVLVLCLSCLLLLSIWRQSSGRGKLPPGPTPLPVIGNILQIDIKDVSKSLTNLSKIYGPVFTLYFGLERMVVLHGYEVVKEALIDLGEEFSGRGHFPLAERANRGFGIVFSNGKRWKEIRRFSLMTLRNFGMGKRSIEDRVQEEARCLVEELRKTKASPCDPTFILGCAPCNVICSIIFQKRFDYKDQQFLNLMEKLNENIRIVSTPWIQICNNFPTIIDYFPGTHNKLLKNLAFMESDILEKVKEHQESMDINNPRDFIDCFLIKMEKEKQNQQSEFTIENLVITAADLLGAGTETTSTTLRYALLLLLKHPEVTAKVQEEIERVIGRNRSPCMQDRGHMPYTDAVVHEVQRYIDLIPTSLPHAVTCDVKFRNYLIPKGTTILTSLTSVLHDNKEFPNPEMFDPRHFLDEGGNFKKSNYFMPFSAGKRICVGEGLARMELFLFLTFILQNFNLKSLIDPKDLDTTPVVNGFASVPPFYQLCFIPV
# [1] = Population PK model (two-compartment, zero order absorption); parameters: species or system human; conditions: value estimated in HVs, fixed in the model
# Description: A population PK model was developed using PK data collected from the PK study mentioned above. The data was collected after variable long treatment periods lasting more than a year in some cases, with different doses, and with different dosage regimens in both pediatric and adult volunteers (N=16).
# The sparse drug concentrations (24 PK samples) were fitted using a two-compartment model with zero order absorption rate, which was also used to describe the PK time course in the PK study.
# The final models for Clearance and Volume were:
# Wherein CL is the value of the clearance in a patient, CLt is the typical value of the clearance in adult subjects, WT is the body weight, TM50 is the maturation half time, g is the Hill coefficient and Vt is the typical value of the volume in adult subjects.
# [2] = CARIV-A-001 Part B: cross-over IV infusion over 2 hours vs oral tablet 100 mg/kg in healthy subjects; format: in vivo, human; parameters: CL, Max / CL, Min: unit not given here; conditions: for AUCinf, Max / AUCinf, Min / aucL, Max / aucL, Min: in ng·h/mL; for AUC(0-inf) / clearance / Cmax / half-life / CL/F / bioavailability / AUC(0-t) / AUC: plasma; for AUC: read-out: aucL, Median
# Description: The levels of CGA in plasma and urine were analysed using a fully validated method, which included LC-MS/MS analysis. The PK data were analysed based on a non-compartmental model. A model-based approach was implemented for the characterization of the PK properties of the IV formulation in order to estimate the level of PK exposure after different doses administered with different duration of infusion. The model outcomes provided rationales for supporting decision-making through the dose escalation process. The PK parameters were determined using SAS (version 9.3), and modelling of the PK data was performed using NONMEM (version 7.3, ICON Solutions). PART A: Mono-Centre, Randomized, Successive Groups, Double-Blind, Placebo-Controlled Study in Healthy Male and Female Subjects
# Part B was a randomized, double-blind, cross-over, two-sequence study. It was conducted in 12 healthy male and female subjects.
# In two treatment periods, separated by a washout of at least two weeks, subjects received a single administration of the study medication in fasting conditions, either as an IV loading dose infusion of Rec0/0491 over 2 hours (started with 6 mg/kg/h then reduced to 4.0 mg/kg/h), or an oral tablet administration of Carbaglu® (100 mg/kg).
# Blood samples for PK measurements were collected at 19 timepoints for the IV administration and 17 timepoints for the oral administration. This included a sample prior to intake of the study medication and the period ranging from 20 minutes to 72 hours following the initiation of the IV infusion, and the period ranging from 30 minutes to 72 hours following oral intake. Urine was also collected for PK measurements, at the following intervals relative to the time of administration of the study medication: 0-6, 6-12, 12-24, 24-36 and 36-48 hours.
# The PK analysis of Carbaglu was conducted on all subjects showing quantifiable plasma levels using standard non-compartmental approach.
# [3] = Exposure previously observed in HVs following oral administration; conditions: human, in vivo, read-out: Highest AUC previously observed
# [4] = both sexes, human, oral, OR, 100 mg/kg, N 12
# [5] = both sexes, human, IV, 8 mg/kg, N 10
# [6] = both sexes, human, IV, 12 mg/kg, N 2
# [7] = dose normalized section, Reference (IV data), in h
# [8] = dose normalized section, Test (oral data), in h
# [9] = dose normalized, Reference (IV data)
# [10] = dose normalized, Test (oral data)
compound,measurement,setting,value
"NC(=O)N[C@@H](CCC(=O)O)C(=O)O [carglumic acid, N-carbamoyl-L-glutamic acid]",Mean reduction in plasma NH3 levels from baseline,plasma NH3; 36-48 hours from treatment initiation,−63%
same,Differences in plasma ammonia level reduction between pediatric and adult patients with PA or MMA,"plasma NH3; 51 patients (27 PA, 24 MMA)",no apparent differences
same,Median change in the number of clinical findings from baseline to endpoint,"plasma NH3; clinical, laboratory, neurological, psychiatric, respiratory findings and feeding difficulties",−4.0
same,Normalization of the neurological findings,"plasma NH3; human, in vivo",50 % of episodes
same,Inhibition of CYP2C19,CYP2C19,not an inhibitor
same,"CLt, typical value of the clearance in adult subjects",[1],0.178
same,"Absolute bioavailability F of the oral vs IV formulation, GeoMean",[2]; 12 subjects,9.57%
same,"Equivalence of exposure, oral tablet 100 mg/kg vs IV infusion over 2 hours",[2]; 90% confidence limits vs reference limits of 0.8 and 1.25,non-equivalent level of exposure
same,"CL, Max","[2]; IV, 8 mg/kg, N 10",0.472
same,"CL, Min","[2]; IV, 8 mg/kg, N 10",0.225
same,"Cmax, Max","[2]; IV, 8 mg/kg, N 10",11700 ng/mL
same,"Cmax, Min","[2]; IV, 8 mg/kg, N 10",5400 ng/mL
same,"HL (Half-life), Max","[2]; IV, 8 mg/kg, N 10, in h",52.95
same,"HL (Half-life), Min","[2]; IV, 8 mg/kg, N 10, in h",22.85
same,"AUCinf, Max","[2]; IV, 8 mg/kg, N 10",35564.90
same,"AUCinf, Min","[2]; IV, 8 mg/kg, N 10",16949.96
same,"aucL, Max","[2]; IV, 8 mg/kg, N 10",34579.31
same,"aucL, Min","[2]; IV, 8 mg/kg, N 10",15713.03
same,"CL, Max","[2]; IV, 12 mg/kg, N 2",0.267
same,"CL, Min","[2]; IV, 12 mg/kg, N 2",0.192
same,"Cmax, Max","[2]; IV, 12 mg/kg, N 2",23500 ng/mL
same,"Cmax, Min","[2]; IV, 12 mg/kg, N 2",19400 ng/mL
same,"HL (Half-life), Max","[2]; IV, 12 mg/kg, N 2, in h",42.59
same,"HL (Half-life), Min","[2]; IV, 12 mg/kg, N 2, in h",27.23
same,"AUCinf, Max","[2]; IV, 12 mg/kg, N 2",62628.03
same,"AUCinf, Min","[2]; IV, 12 mg/kg, N 2",45001.41
same,"aucL, Max","[2]; IV, 12 mg/kg, N 2",61017.40
same,"aucL, Min","[2]; IV, 12 mg/kg, N 2",43281.03
same,"Cmax, Max","[2]; OR, 100 mg/kg, N 12",5620 ng/mL
same,"Cmax, Min","[2]; OR, 100 mg/kg, N 12",1950 ng/mL
same,"HL (Half-life), Max","[2]; OR, 100 mg/kg, N 12, in h",35.31
same,"HL (Half-life), Min","[2]; OR, 100 mg/kg, N 12, in h",17.56
same,"AUCinf, Max","[2]; OR, 100 mg/kg, N 12",45696.37
same,"AUCinf, Min","[2]; OR, 100 mg/kg, N 12",21852.27
same,"aucL, Max","[2]; OR, 100 mg/kg, N 12",44250.17
same,"aucL, Min","[2]; OR, 100 mg/kg, N 12",20030.59
same,Percent of dose excreted in urine,[2]; after IV administration,82%
same,Percent of dose excreted in urine,[2]; after oral administration,7.5%
same,CL renal,"[2]; both sexes, human, plasma and urine, after IV administration, read-out: Renal clearance (converted)",~5 mL/min/kg
same,AUC(0-inf),"[2]; both sexes, human, iv, 8 mg/kg, IV, 8 mg/kg, N 10, read-out: AUCinf, Mean",24500 ng·h/mL
same,AUC(0-inf),"[2]; both sexes, human, iv, 8 mg/kg, IV, 8 mg/kg, N 10, read-out: AUCinf, Median",23700 ng·h/mL
same,clearance,"[2]; both sexes, human, iv, 8 mg/kg, IV, 8 mg/kg, N 10, read-out: CL, Mean (converted)",5.65 mL/min/kg
same,clearance,"[2]; both sexes, human, iv, 8 mg/kg, IV, 8 mg/kg, N 10, read-out: CL, Median (converted)",5.63 mL/min/kg
same,Cmax,"[2]; both sexes, human, iv, 8 mg/kg, IV, 8 mg/kg, N 10, read-out: Cmax, Mean",8610 ng/mL
same,Cmax,"[2]; both sexes, human, iv, 8 mg/kg, IV, 8 mg/kg, N 10, read-out: Cmax, Median",8760 ng/mL
same,half-life,"[2]; both sexes, human, iv, 8 mg/kg, IV, 8 mg/kg, N 10, read-out: HL (Half-life), Mean (converted)",30.6 h
same,half-life,"[2]; both sexes, human, iv, 8 mg/kg, IV, 8 mg/kg, N 10, read-out: HL (Half-life), Median (converted)",28.8 h
same,AUC(0-inf),"[2]; both sexes, human, iv, 12 mg/kg, IV, 12 mg/kg, N 2, read-out: AUCinf, Mean",53800 ng·h/mL
same,AUC(0-inf),"[2]; both sexes, human, iv, 12 mg/kg, IV, 12 mg/kg, N 2, read-out: AUCinf, Median",53800 ng·h/mL
same,clearance,"[2]; both sexes, human, iv, 12 mg/kg, IV, 12 mg/kg, N 2, read-out: CL, Mean (converted)",3.82 mL/min/kg
same,clearance,"[2]; both sexes, human, iv, 12 mg/kg, IV, 12 mg/kg, N 2, read-out: CL, Median (converted)",3.82 mL/min/kg
same,Cmax,"[2]; both sexes, human, iv, 12 mg/kg, IV, 12 mg/kg, N 2, read-out: Cmax, Mean",21400 ng/mL
same,Cmax,"[2]; both sexes, human, iv, 12 mg/kg, IV, 12 mg/kg, N 2, read-out: Cmax, Median",21400 ng/mL
same,half-life,"[2]; both sexes, human, iv, 12 mg/kg, IV, 12 mg/kg, N 2, read-out: HL (Half-life), Mean (converted)",34.9 h
same,half-life,"[2]; both sexes, human, iv, 12 mg/kg, IV, 12 mg/kg, N 2, read-out: HL (Half-life), Median (converted)",34.9 h
same,clearance,"[2]; both sexes, human, iv, after IV administration, read-out: Total clearance (converted)",5.17 mL/min/kg
same,AUC(0-inf),"[2]; both sexes, human, oral, 100 mg/kg, OR, 100 mg/kg, N 12, read-out: AUCinf, Mean",31400 ng·h/mL
same,AUC(0-inf),"[2]; both sexes, human, oral, 100 mg/kg, OR, 100 mg/kg, N 12, read-out: AUCinf, Median",30200 ng·h/mL
same,CL/F,"[2]; both sexes, human, oral, 100 mg/kg, OR, 100 mg/kg, N 12, read-out: CL/F, Mean (converted)",55.6 mL/min/kg
same,CL/F,"[2]; both sexes, human, oral, 100 mg/kg, OR, 100 mg/kg, N 12, read-out: CL/F, Median (converted)",55.2 mL/min/kg
same,Cmax,"[2]; both sexes, human, oral, 100 mg/kg, OR, 100 mg/kg, N 12, read-out: Cmax, Mean",3280 ng/mL
same,Cmax,"[2]; both sexes, human, oral, 100 mg/kg, OR, 100 mg/kg, N 12, read-out: Cmax, Median",2940 ng/mL
same,half-life,"[2]; both sexes, human, oral, 100 mg/kg, OR, 100 mg/kg, N 12, read-out: HL (Half-life), Mean (converted)",24.6 h
same,half-life,"[2]; both sexes, human, oral, 100 mg/kg, OR, 100 mg/kg, N 12, read-out: HL (Half-life), Median (converted)",23.7 h
same,bioavailability,"[2]; both sexes, human, oral, 100 mg/kg, 12 subjects, read-out: Absolute bioavailability, 90% confidence intervals",8.3 to 11%
same,AUC(0-t),[2]; [4],29800 ng·h/mL
same,AUC,[2]; [4],29100 ng·h/mL
same,bioavailability,"[2]; both sexes, human, po, 100 mg/kg, read-out: Oral bioavailability",~10%
same,AUC(0-t),[2]; [5],22900 ng·h/mL
same,AUC,[2]; [5],22000 ng·h/mL
same,AUC(0-t),[2]; [6],52100 ng·h/mL
same,AUC,[2]; [6],52100 ng·h/mL
same,"refHalf_life, Max",[2]; [7],52.95
same,"refHalf_life, Mean",[2]; [7],31.351
same,"refHalf_life, Median",[2]; [7],28.81
same,"refHalf_life, Min",[2]; [7],22.85
same,"testHalf life, Mean","[2]; dose normalized section, Test (oral data)",24.6 h
same,"testHalf_life, Max",[2]; [8],35.31
same,"testHalf_life, Median",[2]; [8],23.71
same,"testHalf_life, Min",[2]; [8],17.56
same,"refAUCinf, Max",[2]; [9],5219
same,"refAUCinf, Mean",[2]; [9],3299.58
same,"refAUCinf, Median",[2]; [9],3162.4
same,"refAUCinf, Min",[2]; [9],2118.74
same,"refAUClast, Max",[2]; [9],5084.78
same,"refAUClast, Mean",[2]; [9],3105.22
same,"refAUClast, Median",[2]; [9],2840.05
same,"refAUClast, Min",[2]; [9],1964.13
same,"refCL, Max",[2]; [9],0.059
same,"refCL, Mean",[2]; [9],0.038
same,"refCL, Median",[2]; [9],0.04
same,"refCL, Min",[2]; [9],0.016
same,"refCmax, Max",[2]; [9],1958.33
same,"refCmax, Mean",[2]; [9],1195.1
same,"refCmax, Median",[2]; [9],1148.13
same,"refCmax, Min",[2]; [9],675
same,"testAUCinf, Max",[2]; [10],456.96
same,"testAUCinf, Mean",[2]; [10],314.25
same,"testAUCinf, Min",[2]; [10],218.52
same,"testAUClast, Max",[2]; [10],442.5
same,"testAUClast, Mean",[2]; [10],298.07
same,"testAUClast, Min",[2]; [10],200.31
same,"testCL, Max",[2]; [10],0.046
same,"testCL, Mean",[2]; [10],0.033
same,"testCL, Min",[2]; [10],0.022
same,"testCmax, Max",[2]; [10],56.2
same,"testCmax, Mean",[2]; [10],32.84
same,"testCmax, Min",[2]; [10],19.5
same,"Absolute bioavailability F of the oral vs IV formulation, Mean","[2]; from dose normalized AUCinf, 12 subjects",9.87%
same,Total clearance after oral administration corrected by the bioavailability value of F=9.87%,[2]; oral,5.83 mL/min/kg
same,AUC,[3],30700 ng·h/mL
